US20120157388A1, “EXTERNAL COMPOSITION FOR SKIN” (Shiseido Company, Ltd., priority 2007, published 2012)

Assay: Stability evaluation of lotion (appearance and smell after storage)
Format: physicochemical
Details: 50° C., one month
Description: For L-lysyl-β-alanine hydrochloride (Example 2), L-lysine (Comparative Example 6), and β-alanine (Comparative Example 7), the following external composition for skin was prepared, and the stability thereof was evaluated.
50 g each of Example 2, Comparative Example 6 and
Comparative Example 7 was placed in a 50 ml screw tube and capped. After storing them in a 50° C. incubator for one month, changes in appearance and smell were judged according to the following criteria.

For `NCCCC[C@H](N)C(=O)NCCC(=O)O` [L-lysyl-β-alanine], the “stability in appearance (in words)” value was “excellently stable” and the “stability in smell (in words)” value was “excellently stable”.
